What follows are compounds tested against human GPR40 receptor (Homo sapiens, UniProt O14842) (assay: IP1 accumulation measurements using the IPOne assay system). Conditions: 1321N1 cells stably expressing human GPR40; stimulation 1 h at 37° C.
Assay type: cell-based
Procedure: IP1 accumulation measurements using the IPOne assay system—1321N1 cells stably expressing human GPR40 receptor (Euroscreen, Belgium) are seeded 24 h before the assay in white 384-well plates in culture medium containing 10% FCS, 1% Na-Pyruvate and 400 μg/mL G418. IP1 is assayed according to the manufacturer's description (Cisbio Bioassays, France). In brief, the assay is started by substitution of the culture medium by stimulation buffer (Hepes 10 mM, CaCl2 1 mM, MgCl2 0.5 mM, KCl 4.2 mM, NaCl 146 mM, glucose 5.5 mM and LiCl 50 mM, pH 7.4). Cells are stimulated for 1 h at 37° C., 5% CO2 by addition of the compounds that are diluted in stimulation buffer containing LiCl. Assays are stopped by adding HTRF-conjugates (IP1-d2 and Anti-IP1 cryptate Tb) and lysis buffer, provided by the manufacturer. After an incubation time of 1 h at room temperature plates are measured using an EnVision™, Perkin Elmer. The obtained fluorescence ratios at 665/615 […] are then used to calculate the pEC50 values using Assay Explorer 3.3 Software (Accelrys, Inc.) by interpolation using an IP1 reference curve and subsequent sigmoidal curve fitting allowing for a variable hill slope.

Chain of human GPR40 receptor (O14842 whole entry): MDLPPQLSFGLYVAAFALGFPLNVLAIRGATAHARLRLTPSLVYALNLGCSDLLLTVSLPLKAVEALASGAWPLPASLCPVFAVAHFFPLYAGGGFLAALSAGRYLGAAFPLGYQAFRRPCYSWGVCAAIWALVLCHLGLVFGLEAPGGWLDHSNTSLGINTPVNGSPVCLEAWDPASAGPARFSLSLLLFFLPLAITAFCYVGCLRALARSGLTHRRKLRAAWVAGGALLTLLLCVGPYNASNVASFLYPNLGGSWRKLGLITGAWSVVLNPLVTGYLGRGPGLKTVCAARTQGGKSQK

Q: How did the EC50 turn out when `CN(C)c1ccc(Oc2ccc(F)c3c2CC[C@H]3Oc2ccc3c(c2)OC[C@H]3CC(=O)O)cn1` [Example 31] was run?
A: The EC50 was 120 nM.

Q: Which EC50 does the source give for `N#Cc1cccc(Oc2ccc(F)c3c2CC[C@H]3Oc2ccc3c(c2)OC[C@H]3CC(=O)O)c1` [Example 27, {(S)-6-[(R)-4-(3-Cyano-phenoxy)-7-fluoro-indan-1-yloxy]-2,3-dihydro-benzofuran-3-yl}-acetic acid] here?
A: Its EC50 is 7 nM.

Q: Which EC50 does the source give for `O=C(O)C[C@@H]1COc2cc(O[C@@H]3CCc4c(Oc5ncc(F)cn5)ccc(F)c43)ccc21` [Example 33, {(S)-6-[(R)-7-Fluoro-4-(5-fluoro-pyrimid-2-yloxy)-indan-1-yloxy]-2,3-dihydro-benzofuran-3-yl}-acetic acid] here?
A: Its EC50 is 31 nM.

Q: `Cn1ncc2cc(Oc3ccc(F)c4c3CC[C@H]4Oc3ccc4c(c3)OC[C@H]4CC(=O)O)ccc21` [Example 45, {(S)-6-[(R)-7-Fluoro-4-(1-methyl-1H-indazol-5-yloxy)-indan-1-yloxy]-2,3-dihydro-benzofuran-3-yl}-acetic acid] was tested. Which EC50 did it give?
A: Its EC50 is 7 nM.

Q: Which EC50 does the source give for `N#Cc1ccc(Oc2ccc(F)c3c2CC[C@H]3Oc2ccc3c(c2)OC[C@H]3CC(=O)O)cc1F` [Example 29, {(S)-6-[(R)-4-(4-Cyano-3-fluoro-phenoxy)-7-fluoro-indan-1-yloxy]-2,3-dihydro-benzofuran-3-yl}-acetic acid] here?
A: Its EC50 is 6 nM.

Q: With `O=C(O)C[C@@H]1COc2cc(O[C@@H]3CCc4c(Oc5cnccn5)ccc(F)c43)ccc21` [Example 10, {(S)-6-[(R)-7-Fluoro-4-pyrazin-2-yloxy-indan-1-yloxy]-2,3-dihydro-benzofuran-3-yl}-acetic acid] as the compound, how does the EC50 read?
A: The EC50 was 35 nM.

Q: How did the EC50 turn out when `N#Cc1ccc(F)c(Oc2ccc(F)c3c2CC[C@H]3Oc2ccc3c(c2)OC[C@H]3CC(=O)O)c1` [Example 54, {(S)-6-[(R)-4-(5-Cyano-2-fluoro-phenoxy)-7-fluoro-indan-1-yloxy]-2,3-dihydro-benzofuran-3-yl}-acetic acid] was run?
A: Its EC50 is 29 nM.

Q: `O=C(O)C[C@@H]1COc2cc(O[C@@H]3CCc4c(Oc5nc6ccccc6o5)ccc(F)c43)ccc21` [Example 19, {(S)-6-[(R)-4-Benzoxazol-2-yloxy-7-fluoro-indan-1-yloxy]-2,3-dihydro-benzofuran-3-yl}-acetic acid] was tested. Which EC50 did it give?
A: Its EC50 is 13 nM.

Q: For `COc1ccc(Oc2ccc(F)c3c2CC[C@H]3Oc2ccc3c(c2)OC[C@H]3CC(=O)O)nc1` [Example 44, {(S)-6-[(R)-7-Fluoro-4-(5-methoxy-pyrid-2-yloxy)-indan-1-yloxy]-2,3-dihydro-benzofuran-3-yl}-acetic acid], which EC50 is on record?
A: The EC50 was 19 nM.

Q: With `Cc1nc2ccc(Oc3ccc(F)c4c3CC[C@H]4Oc3ccc4c(c3)OC[C@H]4CC(=O)O)cc2s1` [Example 59, {(S)-6-[(R)-7-Fluoro-4-(2-methyl-benzothiazol-6-yloxy)-indan-1-yloxy]-2,3-dihydro-benzofuran-3-yl}-acetic acid] as the compound, how does the EC50 read?
A: The EC50 was 5 nM.

Q: With `Cc1nccc(Oc2ccc(F)c3c2CC[C@H]3Oc2ccc3c(c2)OC[C@H]3CC(=O)O)n1` [Example 9, {(S)-6-[(R)-7-Fluoro-4-(2-methyl-pyrimid-4-yloxy)-indan-1-yloxy]-2,3-dihydro-benzofuran-3-yl}-acetic acid] as the compound, how does the EC50 read?
A: The EC50 was 155 nM.

Q: How did the EC50 turn out when `O=C(O)C[C@@H]1COc2cc(O[C@@H]3CCc4c(Oc5ccc(CO)c(F)c5)ccc(F)c43)ccc21` [Example 28, {(S)-6-[(R)-7-Fluoro-4-(3-fluoro-4-hydroxymethyl-phenoxy)-indan-1-yloxy]-2,3-dihydro-benzofuran-3-yl}-acetic acid] was run?
A: The EC50 was 8 nM.

Q: How did the EC50 turn out when `COc1ccc(Oc2ccc(F)c3c2CC[C@H]3Oc2ccc3c(c2)OC[C@H]3CC(=O)O)cn1` [Example 34, {(S)-6-[(R)-7-Fluoro-4-(2-methoxy-pyrid-5-yloxy)-indan-1-yloxy]-2,3-dihydro-benzofuran-3-yl}-acetic acid] was run?
A: The EC50 was 5 nM.

Q: With `Cc1cc(Oc2ccc(F)c3c2CC[C@H]3Oc2ccc3c(c2)OC[C@H]3CC(=O)O)cc(C)c1C#N` [Example 49, {(S)-6-[(R)-4-(4-Cyano-3,5-dimethyl-phenoxy)-7-fluoro-indan-1-yloxy]-2,3-dihydro-benzofuran-3-yl}-acetic acid] as the compound, how does the EC50 read?
A: Its EC50 is 12 nM.

Q: Which EC50 does the source give for `Cc1ccccc1Oc1ccc(F)c2c1CC[C@H]2Oc1ccc2c(c1)OC[C@H]2CC(=O)O` [Example 4, {(S)-6-[(R)-7-Fluoro-4-(2-methyl-phenoxy)-indan-1-yloxy]-2,3-dihydro-benzofuran-3-yl}-acetic acid] here?
A: Its EC50 is 6 nM.

Q: For `COc1c(F)cc(Oc2ccc(F)c3c2CC[C@H]3Oc2ccc3c(c2)OC[C@H]3CC(=O)O)cc1F` [Example 57, {(S)-6-[(R)-4-(3,5-Difluoro-4-methoxy-phenoxy)-7-fluoro-indan-1-yloxy]-2,3-dihydro-benzofuran-3-yl}-acetic acid], which EC50 is on record?
A: The EC50 was 7 nM.

Q: With `COc1cc(Oc2ccc(F)c3c2CC[C@H]3Oc2ccc3c(c2)OC[C@H]3CC(=O)O)ccc1C#N` [Example 37, {(S)-6-[(R)-4-(4-Cyano-3-methoxy-phenoxy)-7-fluoro-indan-1-yloxy]-2,3-dihydro-benzofuran-3-yl}-acetic acid] as the compound, how does the EC50 read?
A: The EC50 was 5 nM.

Q: `COc1cc(Oc2ccc(F)c3c2CC[C@H]3Oc2ccc3c(c2)OC[C@H]3CC(=O)O)ccn1` [Example 36, {(S)-6-[(R)-7-Fluoro-4-(2-methoxy-pyrid-4-yloxy)-indan-1-yloxy]-2,3-dihydro-benzofuran-3-yl}-acetic acid] was tested. Which EC50 did it give?
A: Its EC50 is 4 nM.

Q: Which EC50 does the source give for `Cc1ccc(Oc2ccc(F)c3c2CC[C@H]3Oc2ccc3c(c2)OC[C@H]3CC(=O)O)c(C#N)c1` [Example 23, {(S)-6-[(R)-4-(2-Cyano-4-methyl-phenoxy)-7-fluoro-indan-1-yloxy]-2,3-dihydro-benzofuran-3-yl}-acetic acid] here?
A: Its EC50 is 7 nM.

Q: With `COc1ccc(Oc2ccc(F)c3c2CC[C@H]3Oc2ccc3c(c2)OC[C@H]3CC(=O)O)c(F)c1` [Example 56, {(S)-6-[(R)-4-(2-Fluoro-4-methoxy-phenoxy)-7-fluoro-indan-1-yloxy]-2,3-dihydro-benzofuran-3-yl}-acetic acid] as the compound, how does the EC50 read?
A: The EC50 was 6 nM.

Q: Which EC50 does the source give for `N#Cc1ccc(Oc2ccc(F)c3c2CC[C@H]3Oc2ccc3c(c2)OC[C@H]3CC(=O)O)c(F)c1` [Example 22, {(S)-6-[(R)-4-(4-Cyano-2-fluoro-phenoxy)-7-fluoro-indan-1-yloxy]-2,3-dihydro-benzofuran-3-yl}-acetic acid] here?
A: The EC50 was 3 nM.

Q: Which EC50 does the source give for `O=C(O)C[C@@H]1COc2cc(O[C@@H]3CCc4c(Oc5cccc6cccnc56)ccc(F)c43)ccc21` [Example 39, {(S)-6-[(R)-7-Fluoro-4-(Quinolin-8-yloxy)-indan-1-yloxy]-2,3-dihydro-benzofuran-3-yl}-acetic acid] here?
A: The EC50 was 21 nM.

Q: With `N#Cc1ccc(F)cc1Oc1ccc(F)c2c1CC[C@H]2Oc1ccc2c(c1)OC[C@H]2CC(=O)O` [Example 30, {(S)-6-[(R)-4-(2-Cyano-5-fluoro-phenoxy)-7-fluoro-indan-1-yloxy]-2,3-dihydro-benzofuran-3-yl}-acetic acid] as the compound, how does the EC50 read?
A: Its EC50 is 11 nM.

Q: With `Cc1nc2ccc(Oc3ccc(F)c4c3CC[C@H]4Oc3ccc4c(c3)OC[C@H]4CC(=O)O)cc2o1` [Example 58, {(S)-6-[(R)-7-Fluoro-4-(2-methyl-benzoxazol-6-yloxy)-indan-1-yloxy]-2,3-dihydro-benzofuran-3-yl}-acetic acid] as the compound, how does the EC50 read?
A: The EC50 was 3 nM.

Q: With `COc1cc(C#N)ccc1Oc1ccc(F)c2c1CC[C@H]2Oc1ccc2c(c1)OC[C@H]2CC(=O)O` [Example 52, {(S)-6-[(R)-4-(4-Cyano-2-methoxy-phenoxy)-7-fluoro-indan-1-yloxy]-2,3-dihydro-benzofuran-3-yl}-acetic acid] as the compound, how does the EC50 read?
A: Its EC50 is 6 nM.

Q: `Cc1cc(C#N)ccc1Oc1ccc(F)c2c1CC[C@H]2Oc1ccc2c(c1)OC[C@H]2CC(=O)O` [Example 24, {(S)-6-[(R)-4-(4-Cyano-2-methyl-phenoxy)-7-fluoro-indan-1-yloxy]-2,3-dihydro-benzofuran-3-yl}-acetic acid] was tested. Which EC50 did it give?
A: Its EC50 is 3 nM.

Q: Which EC50 does the source give for `Cn1cnc2cc(Oc3ccc(F)c4c3CC[C@H]4Oc3ccc4c(c3)OC[C@H]4CC(=O)O)ccc21` [Example 42, {(S)-6-[(R)-7-Fluoro-4-(1-methyl-1H-benzoimidazol-5-yloxy)-indan-1-yloxy]-2,3-dihydro-benzofuran-3-yl}-acetic acid] here?
A: The EC50 was 891 nM.

Q: With `COc1cccc(Oc2ccc(F)c3c2CC[C@H]3Oc2ccc3c(c2)OC[C@H]3CC(=O)O)c1` [Example 2, {(S)-6-[(R)-7-Fluoro-4-(3-methoxy-phenoxy)-indan-1-yloxy]-2,3-dihydro-benzofuran-3-yl}-acetic acid] as the compound, how does the EC50 read?
A: Its EC50 is 6 nM.

Q: For `COc1ccc(Oc2ccc(F)c3c2CC[C@H]3Oc2ccc3c(c2)OC[C@H]3CC(=O)O)cc1` [Example 3, {(S)-6-[(R)-7-Fluoro-4-(4-methoxy-phenoxy)-indan-1-yloxy]-2,3-dihydro-benzofuran-3-yl}-acetic acid], which EC50 is on record?
A: Its EC50 is 3 nM.

Q: With `O=C(O)C[C@@H]1COc2cc(O[C@@H]3CCc4c(Oc5nc6ccccc6s5)ccc(F)c43)ccc21` [Example 12, {(S)-6-[(R)-4-Benzothiazol-2-yloxy-7-fluoro-indan-1-yloxy]-2,3-dihydro-benzofuran-3-yl}-acetic acid] as the compound, how does the EC50 read?
A: Its EC50 is 12 nM.

Q: `N#Cc1ccc(Oc2ccc(F)c3c2CC[C@H]3Oc2ccc3c(c2)OC[C@H]3CC(=O)O)cc1` [Example 8, {(S)-6-[(R)-4-(4-Cyano-phenoxy)-7-fluoro-indan-1-yloxy]-2,3-dihydro-benzofuran-3-yl}-acetic acid] was tested. Which EC50 did it give?
A: The EC50 was 4 nM.

Q: `O=C(O)C[C@@H]1COc2cc(O[C@@H]3CCc4c(Oc5ccccn5)ccc(F)c43)ccc21` [Example 7, {(S)-6-[(R)-7-Fluoro-4-pyrid-2-yloxy-indan-1-yloxy]-2,3-dihydro-benzofuran-3-yl}-acetic acid] was tested. Which EC50 did it give?
A: The EC50 was 32 nM.
